Each structure is given as a SMILES string.

The target in this experiment is Glycogen synthase kinase-3 beta (Homo sapiens, UniProt P49841). In words: Kinase-Glo Assay. As to conditions: 30 °C. On the procedure: The final DMSO concentration in the reaction mixture was <1%. After incubation at 30 °C for 30 min, the enzymatic reaction was quenched with 40 μL of Kinase-Glo reagent. Luminescence was recorded after 10 min using Infinite F200® PRO multimode reader (Tecan Group Ltd., Männedorf, Switzerland). The activity is proportional to the difference of the total and consumed ATP.
Sequence of Glycogen synthase kinase-3 beta (P49841 whole entry): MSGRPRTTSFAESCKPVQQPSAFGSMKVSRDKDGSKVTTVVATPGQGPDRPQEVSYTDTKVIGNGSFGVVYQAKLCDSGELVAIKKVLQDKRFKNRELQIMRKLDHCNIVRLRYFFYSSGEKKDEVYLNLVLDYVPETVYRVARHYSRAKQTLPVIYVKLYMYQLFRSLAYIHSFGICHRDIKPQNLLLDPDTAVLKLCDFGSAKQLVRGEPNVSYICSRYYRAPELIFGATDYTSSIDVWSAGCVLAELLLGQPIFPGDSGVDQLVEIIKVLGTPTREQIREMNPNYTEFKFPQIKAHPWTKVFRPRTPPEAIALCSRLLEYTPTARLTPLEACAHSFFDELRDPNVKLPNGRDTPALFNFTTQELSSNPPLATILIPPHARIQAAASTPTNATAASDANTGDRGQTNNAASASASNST
In general terms: In Kinase-Glo more light means more ATP remaining.
In general, IC50 refers to the midpoint of a concentration-inhibition curve. With `O=c1oc2cccnc2n1Cc1cn(-c2ccc(Cl)cc2Cl)nn1` [3-((1-(2,4-dichlorophenyl)-1H-1,2,3-triazol-4-yl)methyl)oxazolo[4,5-b]pyridin-2(3H)-one (4r)], the midpoint of inhibition, the IC50, lay at 10.8 µM.
The value for `O=c1oc2cccnc2n1Cc1cn(-c2ccccc2Br)nn1` [3-((1-(2-bromophenyl)-1H-1,2,3-triazol-4-yl)methyl)oxazolo[4,5-b]pyridin-2(3H)-one (4f)] was 0.31 µM; that for `O=c1oc2cccnc2n1Cc1cn(-c2ccccc2Cl)nn1` [3-((1-(2-chlorophenyl)-1H-1,2,3-triazol-4-yl)methyl)oxazolo[4,5-b]pyridin-2(3H)-one (4g)] was 0.19 µM; that for `O=c1oc2cccnc2n1Cc1cn(-c2cccnc2Cl)nn1` [3-((1-(2-chloropyridin-3-yl)-1H-1,2,3-triazol-4-yl)methyl)oxazolo[4,5-b]pyridin-2(3H)-one (4t)] was 11 µM.
Consider `O=c1oc2cccnc2n1Cc1cn(-c2ccccc2F)nn1` [3-((1-(2-fluorophenyl)-1H-1,2,3-triazol-4-yl)methyl)oxazolo[4,5-b]pyridin-2(3H)-one (4i)], for which it took 0.37 µM to reach half-maximal inhibition (IC50).
For `COc1ccccc1-n1cc(Cn2c(=O)oc3cccnc32)nn1` [3-((1-(2-methoxyphenyl)-1H-1,2,3-triazol-4-yl)methyl)oxazolo[4,5-b]pyridin-2(3H)-one  (4q)], the IC50 came out at 0.74 µM.
`O=c1oc2cccnc2n1Cc1cn(-c2ccc(Cl)c(Cl)c2)nn1` [3-((1-(3,4-dichlorophenyl)-1H-1,2,3-triazol-4-yl)methyl)oxazolo[4,5-b]pyridin-2(3H)-one (4s)] yielded an IC50 of 12.6 µM.
In the case of `Cc1ccc(-n2cc(Cn3c(=O)oc4cccnc43)nn2)cc1C` [3-((1-(3,4-dimethylphenyl)-1H-1,2,3-triazol-4-yl)methyl)oxazolo[4,5-b]pyridin-3H)one (4j)], it took 40.1 µM to reach half-maximal inhibition (IC50).
With `O=c1oc2cccnc2n1Cc1cn(-c2cccc(Cl)c2)nn1` [3-((1-(3-chlorophenyl)-1H-1,2,3-triazol-4-yl)methyl)oxazolo[4,5-b]pyridin-2(3H)-one (4k)], the IC50 is 28.4 µM.
In turn, `O=c1oc2cccnc2n1Cc1cn(-c2cccc([N+](=O)[O-])c2)nn1` [3-((1-(3-nitrophenyl)-1H-1,2,3-triazol-4-yl)methyl)oxazolo[4,5-b]pyridin-2(3H)-one (4o)] returned a half-inhibitory concentration (IC50) of 15.6 µM.
`O=c1oc2cccnc2n1Cc1cn(-c2ccc(Br)cc2)nn1` [3-((1-(4-bromophenyl)-1H-1,2,3-triazol-4-yl)methyl)oxazolo[4,5-b]pyridin-2(3H)-one (4b)] displayed an IC50 of 8.64 µM.
The figure for `O=c1oc2cccnc2n1Cc1cn(-c2ccc(Cl)cc2)nn1` [3-((1-(4-chlorophenyl)-1H-1,2,3-triazol-4-yl)methyl)oxazolo[4,5-b]pyridin-2(3H)-one (4c)] is 5.73 µM.
For the molecule `CCOc1ccc(-n2cc(Cn3c(=O)oc4cccnc43)nn2)cc1` [3-((1-(4-ethoxyphenyl)-1H-1,2,3-triazol-4-yl)methyl)oxazolo[4,5-b]pyridin-2(3H)-one (4u)], the IC50 is 37.3 µM.
As to `CCc1ccc(-n2cc(Cn3c(=O)oc4cccnc43)nn2)cc1` [3-((1-(4-ethylphenyl)-1H-1,2,3-triazol-4-yl)methyl)oxazolo[4,5-b]pyridin-2(3H)-one (4h)], the concentration for half-maximal inhibition (IC50) was determined as 12.7 µM.
The molecule `O=c1oc2cccnc2n1Cc1cn(-c2ccc(F)cc2)nn1` [3-((1-(4-fluorophenyl)-1H-1,2,3-triazol-4-yl)methyl)oxazolo[4,5-b]pyridin-2(3H)-one (4e)] had an IC50 of 2.49 µM.
In turn, `COc1ccc(-n2cc(Cn3c(=O)oc4cccnc43)nn2)cc1` [3-((1-(4-methoxyphenyl)-1H-1,2,3-triazol-4-yl)methyl)oxazolo[4,5-b]pyridin-2(3H)-one (4l)] came in with an IC50 of 8.45 µM.
As for `O=c1oc2cccnc2n1Cc1cn(-c2ccc([N+](=O)[O-])cc2)nn1` [3-((1-(4-nitrophenyl)-1H-1,2,3-triazol-4-yl)methyl)oxazolo[4,5-b]pyridin-2(3H)-one (4p)], the IC50 was determined as 17.1 µM.
Regarding `CC(C)(C)c1ccc(-n2cc(Cn3c(=O)oc4cccnc43)nn2)cc1` [3-((1-(4-tert-butylphenyl)-1H-1,2,3-triazol-4-yl)methyl)oxazolo[4,5-b]pyridin-2(3H)-one (4m)], the IC50 was 23.5 µM.
On to `O=c1oc2cccnc2n1Cc1cn(-c2cccnc2)nn1` [3-((1-(pyridin-3-yl)-1H-1,2,3-triazol-4-yl)methyl)oxazolo[4,5-b]pyridin-2(3H)-one (4d)], for which the IC50 amounted to 0.23 µM.
In turn, `Cc1ccccc1-n1cc(Cn2c(=O)oc3cccnc32)nn1` [3-((1-o-tolyl-1H-1,2,3-triazol-4-yl)methyl)oxazolo[4,5-b]pyridin-2(3H)-one (4n)] yielded an IC50 of 0.65 µM.
Molecule `O=c1oc2cccnc2n1Cc1cn(-c2ccccc2)nn1` [3-((1-phenyl-1H-1,2,3-triazol-4-yl)methyl)oxazolo[4,5-b]pyridin-2(3H)-one (4a)] came in with an IC50 of 10.1 µM.

The values above are taken from BindingDB's records for doi:10.1111/cbdd.12724 (Hamdard University (Jamia Hamdard), 2016).
